Test results from patent US7410979B2, “Synergistically effective combinations of dihaloacetamide compounds and interferon or ribavirin against HCV infections” (Rigel Pharmaceuticals, Inc., priority 2003, dated 2008).

System: HCV NS3
Experiment: Quantitative Western blot of HCV NS3 in replicon cells
Assay type: cell-based
Protocol: Certain exemplary synergistic combinations of the invention can also be tested for their ability to inhibit HCV replication using a quantitative Western blot analysis with antibodies specific for the HCV nonstructural protein NS3. Actively dividing 9-13 replicon cells can be seeded into 6-well plates at a density of 1×10^5 cells/well in a volume of 2 ml/well and can be incubated at 37° C. and 5% CO2 for 24 hours. Various concentrations of test compounds (in a volume of 10 ul) were can be added to the wells and the cells can be incubated for another 48 hours. Protein samples can be prepared from the cultured cells, then could be resolved on a SDS-PAGE gel and then could be transferred to a nitrocellulose membrane. The membrane can be blocked with 5% non-fat milk in PBS for 1 hour at room temperature. Primary antibody (anti NS3 antibody; Rigel Pharmaceuticals, South San Francisco, Calif.) incubation can be performed for 1 hour at room temperature, after which the membrane can be washed 3 times (for 15 min per time) with PBST (PBS plus 0.1% Tween 20). Horseradish peroxidase conjugated secondary antibody incubation can be performed for 1 hour at room temperature and the membrane can be washed 3 times (for 15 min per time) with PBST. The membrane can then be soaked in substrate solution (Pierce) and can then be exposed to a film or quantified using an imager. In this assay, the amount of test synergetic combination that yields a 50% reduction in the amount of NS3 protein translated as compared to a control sample (IC50) can be determined.

With interferon-α the “effectiveness against HCV replication, as indicated by the reduction of HCV NS3 in replicon cells” value (FIG. 3(a), interferon-α alone at elevated concentrations) was “effective”.

`O=C(Nc1ccnc(-c2cc(-c3c(Cl)cccc3Cl)no2)c1)C(Cl)Cl` [compound I] was tested, and the “HCV NS3 protein level” value (FIG. 2, 100 nM of compound I and 20 μm ribavirin) was “eliminated”, the “synergy between compound I and ribavirin” value (FIG. 2, ribavirin at constant concentration, concentration of compound I varied) was “synergy” and the “synergistic effects on HCV replication” value (FIG. 3, compound I, interferon-α and ribavirin) was “synergistic effects”. For the same compound, the “HCV NS3” value (FIGS. 3(c) and 3(d), increasing concentrations of compound I in combination with interferon-α and ribavirin) was “effectively eliminates”.
